Measurements taken from paper PMC8198649, “Development of Halogenated Pyrazolines as Selective Monoamine Oxidase-B Inhibitors: Deciphering via Molecular Dynamics Approach” (Molecules, 2021).

Experiments:
[1] = parameters: method as in PMID 12667689; conditions: PAMPA-BBB; cited from earlier work
[2] = Parallel artificial membrane permeability assay (PAMPA), BBB; conditions: for Papp: PAMPA
Excerpt: The CNS bioavailability of the molecules was confirmed by a parallel artificial membrane permeability assay (PAMPA) [40].

AChE = AChE (Electrophorus electricus, UniProt O42275); test: AChE inhibition; format: biochemical; conditions: 10 µM compound; read-out: Residual Activity at 10 µM (%) AChE
recombinant human MAO-A = target: T1, recombinant human MAO-A (Homo sapiens, UniProt P21397); test: MAO-A inhibition assay (kynuramine substrate) and kinetics; format: biochemical; conditions: for remaining activity at 10 µM: 10 µM compound, read-out: Residual Activity at 10 µM (%) MAO-A; for Ki: Lineweaver–Burk and secondary plots; for Type of MAO-A inhibition: Lineweaver–Burk plots; for IC50: reference compounds after preincubation for 30 min with enzymes
T1 construct: purchased Sigma-Aldrich (St. Louis, MO, USA)
T1 sequence (P21397 1-527): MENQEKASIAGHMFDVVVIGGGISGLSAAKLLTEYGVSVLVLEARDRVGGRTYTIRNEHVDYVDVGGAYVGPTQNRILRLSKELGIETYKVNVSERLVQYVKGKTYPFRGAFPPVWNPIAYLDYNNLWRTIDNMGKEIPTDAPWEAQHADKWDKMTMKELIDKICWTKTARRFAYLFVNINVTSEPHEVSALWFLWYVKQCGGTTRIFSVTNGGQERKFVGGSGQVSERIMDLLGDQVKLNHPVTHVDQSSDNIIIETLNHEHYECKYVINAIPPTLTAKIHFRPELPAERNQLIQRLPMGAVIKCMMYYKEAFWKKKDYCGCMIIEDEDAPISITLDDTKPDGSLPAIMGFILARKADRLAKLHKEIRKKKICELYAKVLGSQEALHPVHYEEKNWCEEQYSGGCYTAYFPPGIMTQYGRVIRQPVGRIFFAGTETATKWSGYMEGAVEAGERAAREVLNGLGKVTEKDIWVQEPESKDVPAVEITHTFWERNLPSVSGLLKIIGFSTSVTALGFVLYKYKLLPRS
Excerpt: (§1) The enzymes and chemicals were purchased from Sigma-Aldrich (St. Louis, MO, USA).

MAO-B [3] = target: T2, MAO-B (Homo sapiens, UniProt P27338); test: Reversibility of MAO-B inhibition by dialysis; format: biochemical
T2 construct: purchased Sigma-Aldrich (St. Louis, MO, USA)
T2 sequence (P27338 1-520): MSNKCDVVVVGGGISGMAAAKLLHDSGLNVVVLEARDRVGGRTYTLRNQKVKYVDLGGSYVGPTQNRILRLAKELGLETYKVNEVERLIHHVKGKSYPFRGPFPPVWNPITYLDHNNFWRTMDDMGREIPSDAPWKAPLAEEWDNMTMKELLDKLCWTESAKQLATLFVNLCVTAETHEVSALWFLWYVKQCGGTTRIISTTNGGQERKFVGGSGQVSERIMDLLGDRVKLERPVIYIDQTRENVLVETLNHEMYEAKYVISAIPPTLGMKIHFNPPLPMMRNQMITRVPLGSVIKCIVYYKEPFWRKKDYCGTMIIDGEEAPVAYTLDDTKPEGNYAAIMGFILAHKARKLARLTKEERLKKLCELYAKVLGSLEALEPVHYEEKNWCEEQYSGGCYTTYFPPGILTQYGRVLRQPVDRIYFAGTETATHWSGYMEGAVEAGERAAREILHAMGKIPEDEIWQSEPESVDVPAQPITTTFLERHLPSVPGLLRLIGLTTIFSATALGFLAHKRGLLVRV
Method: Reversibilities of EH7 were analyzed using a dialysis method after preincubating with MAO-B for 30 min, as previously described. […] The relative activities for undialyzed (AU) and dialyzed (AD) samples were compared to determine the reversibility patterns.

MAO-B [4] = target: T2, MAO-B; test: MAO-B inhibition assay (benzylamine substrate) and kinetics; format: biochemical; conditions: for remaining activity at 10 µM: 10 µM compound, read-out: Residual Activity at 10 µM (%) MAO-B; for Ki: Lineweaver–Burk and secondary plots; for Type of MAO-B inhibition: Lineweaver–Burk plots; for IC50: reference compounds after preincubation for 30 min with enzymes
Excerpt: as §1

Sequence of AChE (O42275 24-633): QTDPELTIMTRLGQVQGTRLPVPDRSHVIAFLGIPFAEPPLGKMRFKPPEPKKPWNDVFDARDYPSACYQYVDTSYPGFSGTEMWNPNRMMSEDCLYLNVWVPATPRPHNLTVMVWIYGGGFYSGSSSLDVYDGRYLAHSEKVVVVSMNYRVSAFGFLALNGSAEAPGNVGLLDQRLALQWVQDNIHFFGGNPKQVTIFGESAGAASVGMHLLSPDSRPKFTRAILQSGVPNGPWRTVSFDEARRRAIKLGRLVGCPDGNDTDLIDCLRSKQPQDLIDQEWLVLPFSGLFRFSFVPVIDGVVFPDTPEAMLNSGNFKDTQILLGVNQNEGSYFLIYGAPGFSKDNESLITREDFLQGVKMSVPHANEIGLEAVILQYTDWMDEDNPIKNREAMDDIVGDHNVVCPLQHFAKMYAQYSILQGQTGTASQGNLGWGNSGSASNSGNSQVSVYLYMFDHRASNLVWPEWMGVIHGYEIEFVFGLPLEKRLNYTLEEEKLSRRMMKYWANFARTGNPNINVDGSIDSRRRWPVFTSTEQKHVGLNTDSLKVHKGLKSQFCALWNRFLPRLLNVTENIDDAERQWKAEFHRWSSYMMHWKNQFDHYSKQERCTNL

Prediction (CNS permeability) ([2]; PAMPA-BBB)	SMILES	Bibliography Pe [1]	Papp [2]	Experimental Pe ([2]; PAMPA-BBB)	remaining activity at 10 µM (AChE)	remaining activity at 10 µM (recombinant human MAO-A)	Ki (recombinant human MAO-A)	Type of MAO-A inhibition (recombinant human MAO-A)	IC50 (recombinant human MAO-A)	Relative activity of undialyzed sample (AU) (MAO-B [3]; EH7 0.15 µM, lazabemide 0.20 µM, pargyline 0.30 µM, 30 min preincubation)	Relative activity of dialyzed sample (AD) (MAO-B [3]; EH7 0.15 µM, lazabemide 0.20 µM, pargyline 0.30 µM, 30 min preincubation, dialysis)	Reversibility of MAO-B inhibition (MAO-B [3]; dialysis)	SI (selectivity index) (MAO-B [4])	remaining activity at 10 µM (MAO-B [4])	Ki (MAO-B [4])	Type of MAO-B inhibition (MAO-B [4])	IC50 (MAO-B [4])
CNS+/−	CN1C(C(=O)Nc2ccccn2)=C(O)c2ccccc2S1(=O)=O [Piroxicam, reference compound]	2.5 ×10⁻⁶ cm/s	2.43 ± 0.3 ×10⁻⁶ cm/s	–	–	–	–	–	–	–	–	–	–	–	–	–	–
–	NCCc1ccc(O)c(O)c1 [Dopamine]	0.2 ×10⁻⁶ cm/s	–	–	–	–	–	–	–	–	–	–	–	–	–	–	–
–	CC(=O)[C@H]1CC[C@H]2[C@@H]3CCC4=CC(=O)CC[C@]4(C)[C@H]3CC[C@]12C [Progesterone, reference compound]	–	–	9.02 ± 0.11 ×10^−6 cm/s	–	–	–	–	–	–	–	–	–	–	–	–	–
–	CCOc1ccc(C2=NNC(c3ccc(F)cc3)C2)cc1 (stereo not shown) [EH7, 3-(4-ethoxyphenyl)-5-(4-fluorophenyl)-4,5-dihydro-1H-pyrazole]	–	14.1 ± 0.71 ×10⁻⁶ cm/s	–	74 ± 0.71%	46.9 ± 1.25%	3.64 ± 0.18 µM	competitive inhibitor	8.38 ± 0.88 µM	12.5%	89.5%	reversible inhibitor	133.0	4.03 ± 0.53%	0.034 ± 0.0067 µM	competitive inhibitor	0.063 ± 0.0042 µM
–	CCOc1ccc(C2=NNC(c3ccccc3)C2)cc1 (stereo not shown) [EH1, 3-(4-ethoxyphenyl)-5-phenyl-4,5-dihydro-1H-pyrazole]	–	10.3 ± 0.33 ×10⁻⁶ cm/s	–	81 ± 6.21%	99.1 ± 0.27%	–	–	> 40 µM	–	–	–	>7.43	33.7 ± 0.96%	–	–	5.38 ± 0.16 µM
–	CCOc1ccc(C2=NNC(c3ccc(Br)cc3)C2)cc1 (stereo not shown) [EH8, 5-(4-bromophenyl)-3-(4-ethoxyphenyl)-4,5-dihydro-1H-pyrazole]	–	14.6 ± 0.26 ×10⁻⁶ cm/s	–	53.7 ± 2.15%	33.5 ± 0.65%	–	–	4.31 ± 0.013 µM	–	–	–	6.3	11.3 ± 0.13%	–	–	0.69 ± 0.017 µM
–	CCOc1ccc(C2=NNC(c3ccc(Cl)cc3)C2)cc1 (stereo not shown) [EH6, 5-(4-chlorophenyl)-3-(4-ethoxyphenyl)-4,5-dihydro-1H-pyrazole]	–	14.3 ± 0.8 ×10⁻⁶ cm/s	–	63.5 ± 4.99%	68.1 ± 0.18%	10.8 ± 1.03 µM	competitive inhibitor	22.3 ± 0.12 µM	–	–	–	–	19.4 ± 1.01%	0.19 ± 0.016 µM	competitive inhibitor	0.4 ± 0.051 µM
